Results published in patent EP3318253B1, “COMPOSITIONS COMPRISING WNT INHIBITORS FOR TREATING CANCER” (Schmidt-Wolf, Ingo, priority 2010, dated 2012).
Where two headings read alike, the source gives them in different places.

Legend:
[1] = system: PBL; test: Cell viability by DiOC6 staining, flow cytometry (normal control cells); conditions: for IC50: Homo sapiens, PBL, 72 h; for effect on normal PBL: result in words
Method: (§4) Peripheral blood mononuclear cells (PBMC) and PBL were isolated from blood samples of healthy volunteers by Ficoll density gradient centrifugation (Lymphoprep, Nycomed, Oslo, Norway).
(§5) 1x10^5 Cells were cultured in 3 ml Medium in 6-well plates. […] The apoptosis assay was performed with 3'3-dihexyloxacarbocyanine iodide (DiOC6) detecting mitochondrial membrane potential in viable cells, and propidium iodide (PI) which binds to DNA in necrotic cells, measured by a fluorescence-activated cell sorter (FACS).
(§6) For FACS analysis, 500µl staining solution containing 80 nM DiOC6 in FACS buffer, consisting of deficient RPMI-medium with 0.5% bovine serum albumin (BSA), was mixed with equal volumes of the cell sample in a glass tube and incubated at 37°C for 15 min. After a washing step with PBS/BSA 1% the cells were re-suspended in 500µl PBS/BSA 1%. After addition of 5µl PI-solution (100µg/ml) the cells were analyzed by FACS. Using this assay, viable cells reveal high fluorescence intensity for DiOC6 and a low expression for PI. In contrary, apoptotic cells show a low expression for DiOC6 and also a low expression for PI (2). Finally, necrotic cells show a low expression for DiOC6 and a high expression for PI.
(§7) PBMC and PBL derived from healthy individuals were used as normal controls. 1x10^5 cells were cultured with each compound using various concentrations for three days. Then cell viability was measured by DIOC6 staining by flow cytometry. Results represent data from two to four separate experiments each.
(§8) PBMC and PBL derived from healthy individuals were used as normal controls. 1x10^5 cells were cultured with each compound using various concentrations for three days. Then cell viability was measured by DIOC6 staining by flow cytometry. Results represent data from 2 to 4 separate experiments each.
(§9) 1x10^5 Cells were cultured in 3 ml Medium in 6-well plates. […] The apoptosis assay was performed with 3' 3-dihexyloxacarbocyanine iodide (DiOC6) detecting mitochondrial membrane potential in viable cells, and propidium iodide (PI) which binds to DNA in necrotic cells, measured by a fluorescence-activated cell sorter (FACS).
(§10) PBL derived from healthy individuals were used as controls. 1x10^5 cells were cultured with each compound using various concentrations for three days. Then cell viability was measured by DIOC6 staining by flow cytometry and IC 50 rates were determined. Results represent data from 2 to 4 separate experiments each.
(§11) PBMC and PBL derived from healthy individuals were used as controls. 1x10^5 cells were cultured with each compound using various concentrations for three days.

[2] = system: U266; test: Cell viability by DiOC6 staining, flow cytometry; format: cell-based; conditions: Homo sapiens, U-266, 72 h, 1x10^5 cells cultured three days, various concentrations
Method: (§1) Experiments were performed as reported recently.
(§2) PBL derived from healthy individuals were used as controls. […] ND, not done.

[3] = system: Raji; test: Cell viability by DiOC6 staining, flow cytometry; format: cell-based; conditions: Homo sapiens, 72 h, 1x10^5 cells cultured three days, various concentrations
Method: as §1, §2

[4] = system: SU-DHL 4; test: Cell viability by DiOC6 staining, flow cytometry; format: cell-based; conditions: Homo sapiens, 72 h; SU-DHL 4; 1x10^5 cells cultured three days, various concentrations
Method: as §1, §2

[5] = system: OCI-Ly8 LAM53; test: Cell viability by DiOC6 staining, flow cytometry; format: cell-based; conditions: Homo sapiens, 72 h; OCI-Ly8 LAM53; 1x10^5 cells cultured three days, various concentrations
Method: as §1, §2

[6] = system: RPMI 8226; test: Cell viability by DiOC6 staining, flow cytometry; format: cell-based; conditions: Homo sapiens, 72 h, 1x10^5 cells cultured three days, various concentrations
Method: as §1, §2

[7] = system: PBMC; test: Cell viability by DiOC6 staining, flow cytometry (normal control cells); format: cell-based, human; conditions: for IC50: Homo sapiens, 72 h, PBMC from healthy individuals, three days; for effect on normal PBMC and PBL: result in words
Method: PBMCs were isolated from blood of healthy donors by Ficoll-Hypaque density gradient centrifugation. Blood from buffy coats was mixed 1:2 with PBS/1% BSA (both PAA, Cölbe, Germany) and used for a ficoll gradient (LymphoPrep, PAA, Cölbe, Germany). After the centrifugation at 800 g for 30 minutes, the leukocyte layer was removed and transferred to new tubes. Subsequently, these cells were washed 3 times with PBS/1%BSA and re-suspended in fresh medium, consisting of RPMI medium (PAA, Cölbe, Germany) with 10% fetal calf serum (Invitrogen, Karlsruhe, Germany), 2.5% hepes buffer solution (PAA, Cölbe, Germany), and 1% penicillin/streptomycin (PAA, Cölbe, Germany).
as §1

[8] = system: lymphoma cell lines; test: Cell viability by DiOC6 staining in lymphoma cell lines; format: cell-based, human; conditions: result in words
Method: as §1, §2

[9] = system: OPM-2 myeloma cells; test: Cell viability by DiOC6 staining, flow cytometry; format: cell-based, human; conditions: for IC50: Homo sapiens, 72 h, OPM-2, 1x10^5 cells cultured three days, various concentrations
Method: as §1, §2

[10] = system: OPM-2, U266 and RPMI 8226 cells; test: Cell viability by DiOC6 staining in myeloma cell lines (mean IC50, combinations); format: cell-based, human; conditions: for IC50: Homo sapiens, mean of the IC50 results in OPM-2, U266 and RPMI 8226 cells; for viability of myeloma cell lines in vitro: result in words
Method: A mean IC50 value in myeloma cells was determined using the mean of the IC50 results determined in OPM-2, U266 and RPMI 8226 cells.
(§3) • Figure 1. […] Data are shown as mean ± SD. • Figure 2. […] Data are shown as mean ± SD. • Figure 3. […] (A) Flow cytometric results. […] Finally, ECL reagent was utilized for detection. • Figure 4C. […] Finally, ECL reagent was utilized for detection. • Figure 5. Effect of EA on viability of myeloma primary cells. […] Results represent data from two separate experiments. Data are shown as mean. • Figure 6. […] (A) Tumor growth and (B) overall survival were measured. Six animals were assayed per group.
Experiments were performed as reported recently. […]

[11] = system: PBL
Method: as §4, §5, §6, §7, §8, §9, §10, §11

[12] = system: Daudi and Raji cells; test: Cell viability in combination experiments, lymphoma cells; format: cell-based, human; conditions: single drug or combination; data not shown
[13] = system: primary myeloma cells derived from bone marrow from patients with multiple myeloma; test: Viability of myeloma primary cells from bone marrow; format: cell-based, human; conditions: incubated three days; preliminary data
Method: Bone marrow samples from patients with myeloma were taken after informed consent, single cell suspensions generated and cells ficolled. Cells were incubated with or without EA for three days and measured for viability.
as §3
Bone marrow samples from patients with myeloma were taken after informed consent, single cell suspensions generated and cells ficolled. Cells were incubated with or without CIC for three days and measured for viability.
Bone marrow samples from patients with myeloma were taken after informed consent, single cell suspensions generated and cells ficolled. Cells were incubated with or without GF for three days and measured for viability.

[14] = system: MPC11 myeloma cells; conditions: gavage, daily dosage 450 µg per animal; for overall survival time: compared to the control group; for animals in which solid tumor nodules formed: treatment group of 6
Method: All animal experiments were done at least in duplicate with groups of 6 BALB/c mice (Charles River, Sulzfeld, Germany). 5x10^5 MCP11 murine myeloma cells were injected per mouse subcutaneously into Balb/c mice. […] Overall survival and tumor growth were measured. Tumor volume was calculated as follows: volume = length x width^2 x 0,52. Animals were killed when tumor volume reached 2000 mm^3.
• Figure 1. […] 1x10^5 cells were cultured with different compounds for three days. The concentration of thalidomide was U266 160µM for U266, RPMI 20µM for RPMI, and OPM 40µM for OPM cells. Then cell viability was measured by DIOC6 staining in flow cytometry. Results represent data from three, two and five separate experiments, respectively. Separate U266 n=3, RPMI n=2, OPM n=5 experiments. Data are shown as mean ± SD. • Figure 2. […] 1x10^5 OPM cells were cultured with the different compounds for three days. The concentration of lenalidomide was 12µM for OPM and 80µM for RPMI cells. Then cell viability was measured by DIOC6 staining in flow cytometry. Results represent data from eight and five OPM n=8, RPMI n=5 separate experiments, respectively. Data are shown as mean ± SD. • Figure 3. […] (A) Flow cytometric results. […] Western Blot analysis for the detection of β-catenin in myeloma cell lines under normal conditions. The myeloma cell lines RPMI 8226, KMS-18 and U266 were analyzed according to their β-catenin expression. • Figure 4B. […] As primary antibodies purified mouse anti-β-catenin and β-actin were used at a dilution of 1:1000 and as secondary antibody served goat anti-mouse IgG-HRP at a dilution of 1:5000. Finally, ECL reagent was utilized for detection. • Figure 4C. […] As primary antibodies Purified mouse anti-β-catenin and β-actin were used at a dilution of 1:1000 and as secondary antibody served goat anti-mouse IgG-HRP at a dilution of 1:5000. Finally, ECL reagent was utilized for detection. • Figure 5. […] Results represent data from two separate experiments. Data are shown as mean. • Figure 6. […] BALB/c mice were injected with 5x10^5 MPC11 myeloma cells subcutaneously. (A) Tumor growth and (B) overall survival were measured. Six animals were assayed per group.
All animal experiments were done at least in duplicate with groups of 6 BALB/c mice (Charles River, Sulzfeld, Germany). 5x10^5 MCP11 murine myeloma cells were injected per mouse subcutaneously into Balb/c mice. Mice were treated orally with 450µg/day CIC and 750 µg lenalidomide/day, respectively. Overall survival and tumor growth were measured. Tumor volume was calculated as follows: volume = length x width^2 x 0,52. Animals were killed when tumor volume reached 2000 mm^3.
• Figure 7. […] 1x10^5 cells were cultured with different compounds for three days. The concentration of thalidomide was U266 160µM for U266, RPMI 20µM for RPMI, and OPM 40µM for OPM cells. Then cell viability was measured by DIOC6 staining in flow cytometry. Results represent data from three, two and five separate experiments, respectively. Separate U266 n=3, RPMI n=2, OPM n=5 experiments. Data are shown as mean ± SD. • Figure 8. […] 1x10^5 OPM cells were cultured with the different compounds for three days. The concentration of lenalidomide was 12µM for OPM and 80µM for RPMI cells. Then cell viability was measured by DIOC6 staining in flow cytometry. Results represent data from eight and five OPM n=8, RPMI n=5 separate experiments, respectively. Data are shown as mean ± SD. • Figure 9. […] (A) Flow cytometric results. (B) We analyzed the effect of CIC on the Wnt/beta catenin pathway by Western blot. • Figure 10A. Western Blot analysis for the detection of β-catenin in myeloma cell lines under normal conditions. The myeloma cell lines RPMI 8226, KMS-18 and U266 were analyzed according to their β-catenin expression. • Figure 10B.

[15] = system: MPC 11; test: Cell viability by DiOC6 staining, flow cytometry; format: cell-based; conditions: Mus musculus, 72 h; MPC 11 (murine); three days
Method: Then cell viability was measured by DIOC6 staining in flow cytometry. […] Then cell viability was measured by DIOC6 staining in flow cytometry. Results represent data from two separate experiments. […] Six animals were used in each group. […] Six animals were used in each group.

[16] = system: KMS18; test: Cell viability by DiOC6 staining, flow cytometry; format: cell-based; conditions: Homo sapiens, 72 h, three days
Text: as §2

Row | Structure (SMILES) | IC50 [1] | effect on normal PBL [1] | IC50 [2] | IC50 [3] | IC50 [4] | IC50 [5] | IC50 [6] | IC50 [7] | effect on normal PBMC and PBL [7] | viability of lymphoma cell lines in vitro [8] | IC50 [9] | IC50 [10] | growth of primary myeloma cells [13] | overall survival time [14] | animals in which solid tumor nodules formed [14] | IC50 [15] | viability of myeloma cell lines in vitro [10] | other results
1 | Nc1cccc2c1CN(C1CCC(=O)NC1=O)C2=O (racemic) [lenalidomide, (RS)-3-(4-amino-1-oxo-3H-isoindol-2-yl)piperidine-2,6-dione] | > 200 µM | marginal | 34 µM | > 1000 µM | > 1000 µM | > 1000 µM | 2 µM | > 400 µM | marginal | no effect | 13 µM | 16.3 µM | – | – | – | – | – | viability of OPM-2 and RPMI-8226 myeloma cells ([10]; lenalidomide 12µM for OPM, 80µM for RPMI, three days): significant decrease in viability
2 | O=C1CCC(N2C(=O)c3ccccc3C2=O)C(=O)N1 (racemic) [thalidomide, (RS)-2-(2,6-dioxopiperidin-3-yl)-1H-isoindole-1,3(2H)-dione] | > 400 µM | – | 300 µM | > 400 µM | > 400 µM | > 400 µM | > 400 µM | > 400 µM | no effect | no effect | 53 µM | > 251 µM | – | – | – | – | – | effect on normal PBL [11]: no effect; viability of OPM-2, U-266 and RPMI-8226 myeloma cells ([10]; thalidomide 160µM for U266, 20µM for RPMI, 40µM for OPM, three days): significant decrease in viability
3 | CC(C)C[C@H](NC(=O)[C@H](Cc1ccccc1)NC(=O)c1cnccn1)B(O)O [bortezomib] | – | – | – | – | – | – | – | – | – | – | – | – | – | – | – | – | – | viability of OPM-2 myeloma cells ([9]; bortezomib alone or in combination, data not shown): significant decrease in viability
4 | COc1cccc2c1C(=O)c1c(O)c3c(c(O)c1C2=O)C[C@@](O)(C(=O)CO)C[C@@H]3O[C@H]1C[C@H](N)[C@H](O)[C@H](C)O1 [doxorubicin] | – | – | – | – | – | – | – | – | – | – | – | – | – | – | – | – | – | viability of Daudi and Raji cells [12]: significant decrease in viability
5 | COC1=CC(=O)C[C@@H](C)[C@]12Oc1c(Cl)c(OC)cc(OC)c1C2=O [griseofulvin, (2S,6'R)-7-chloro-2',4,6-trimethoxy-6'-methyl-3H,4'H-spiro [1-benzofuran-2,1'-cyclohex[2]ene]-3,4'-dione] | 80 µM | – | 18 µM | 33 µM | 22 µM | 30 µM | 26 µM | 180 µM | – | significantly (p<0.05) decreased | – | 22 µM | inhibits the growth | significantly (p<0.05) longer | 5 of 6 | 41 µM | significantly decreased the viability | –
6 | Cc1cc(CC(C)CC(C)(C)C)n(O)c(=O)c1 (stereo not shown) [piroctone olamine] | 18 µM | marginal | 0.6 µM | 0.6 µM | 0.7 µM | 0.6 µM | 0.6 µM | – | – | significantly (p<0.05) decreased | 0.7 µM | 0.6 µM | inhibits the growth | significantly (p<0.05) longer | 5 of 6 | 0.8 µM | significantly decreased the viability | IC50 [16]: 0.6 µM
